Source: patent US5733929A, “Pharmaceutical composition for treating or preventing allergic rhinitis” (Takeda Chemical Industries, Ltd., priority 1993, dated 1998)
Counter-ions that a name gives are not always drawn.

Columns and labels:
[1] = test system: intranasal pressure increase induced by antigen inhalation; test: Experiment 6: intranasal pressure increase induced by antigen inhalation in guinea pigs sensitized by antigen inhalation; assay type: in vivo; details: p.o.; for Increase of intranasal pressure AUC(0-25 min): 5% G.A. 278 ± 35
Method: Hartley male guinea pigs weighing 300 to 400 g (Nippon SLC, Shizuoka, Japan) were anesthetized with pentobarbital (30 mg/kg, i.p.) and fixed on their backs. The cervical part was opened along the median line, the trachea was opened for maintaining respiration, and a cannula was inserted. A tube (JMS cutdown tube, 2.5 mm in outer diameter and 3.5 cm in length) was inserted from the opened site of the trachea into the nasal cavity. The other end of the tube was connected to a respirator (Harvard respirator, model 683), and air was sent into the nasal cavity at a tidal volume of 4 ml and a respiration rate of 70/min. Aerosol of U-46619 (30 μg/ml) solution was prepared using an ultrasonic nebulizer and sent into the nasal cavity for 3 minutes. Changes of the intranasal pressure were determined with a differential pressure transducer connected to the branch of the tube. To prevent air leakage into the oral cavity, the oral cavity was closed with an adhesive (Aron alpha, trade name). Effects on intranasal pressure increase induced by antigen inhalation in guinea pigs sensitized by antigen inhalation Aerosol of 1% OA solution in physiological saline was prepared and administered to Hartley male guinea pigs weighing 300 to 400 g (Nippon SLC, Shizuoka, Japan) by inhalation for 10 minutes. One week later, inhalation was performed again for sensitization. These animals were used as sensitized animals. In a similar manner to that described in Experiment 4, intranasal pressure was determined. The test drug was suspended in 5% G.A. solution and orally administered one hour before the antigen induction.

[2] = test system: intranasal pressure increase induced by inhalation of antigens; test: Experiment 5: intranasal pressure increase induced by inhalation of antigens in actively sensitized (involving IgE participation) guinea pigs; assay type: in vivo; details: p.o.; for Internasal pressure increase AUC(0-30 min): 5% G.A. 339 ± 55
Method: Hartley male guinea pigs weighing 300 to 400 g (Nippon SLC, Shizuoka, Japan) were anesthetized with pentobarbital (30 mg/kg, i.p.) and fixed on their backs. The cervical part was opened along the median line, the trachea was opened for maintaining respiration, and a cannula was inserted. A tube (JMS cutdown tube, 2.5 mm in outer diameter and 3.5 cm in length) was inserted from the opened site of the trachea into the nasal cavity. The other end of the tube was connected to a respirator (Harvard respirator, model 683), and air was sent into the nasal cavity at a tidal volume of 4 ml and a respiration rate of 70/min. Aerosol of U-46619 (30 μg/ml) solution was prepared using an ultrasonic nebulizer and sent into the nasal cavity for 3 minutes. Changes of the intranasal pressure were determined with a differential pressure transducer connected to the branch of the tube. To prevent air leakage into the oral cavity, the oral cavity was closed with an adhesive (Aron alpha, trade name). Effects on intranasal pressure increase induced by inhalation of antigens in actively sensitized (involving IgE participation) guinea pigs Hartley male guinea pigs weighing 300 to 400 g (Nippon SLC, Shizuoka, Japan) were immunized by a modified method of the method of Levine et al. Sensitization was carried out by intraperitoneally administering physiological saline (1 ml) containing ovalbumin (OA)(10 μg) and aluminium hydroxide gel (5 mg) 4 times every 2 weeks. The sensitized guinea pigs were used one week after the final administration. These guinea pigs were anesthetized with pentobarbital (30 mg/kg, i.p.). In a similar manner to that described in Experiment 4, changes of intranasal pressure were determined. Aerosol of OA (3%) was prepared using an ultrasonic nebulizer provided between the respirator and the intranasal tube, and sent into the nasal cavity for 3 minutes. The test drug was suspended in 5% G.A. solution and orally administered one hour before the OA inhalation.

ICR male mice = test: oral toxicity in mice; assay type: in vivo; details: 1000 mg/kg, five ICR male mice (5 weeks old), 7 days
From the text: The compounds to be used as an active ingredient in the present invention have low toxicity. […] The compound to be used as an active ingredient in the present invention can be used as it is or as a pharmaceutical composition (e.g., tablets, granules, capsules including soft capsules and microcapsules, liquid preparations, injections, suppositories, nasal drops, eye drops, etc.) prepared by mixing the compound with a per se known pharmaceutically acceptable carrier, diluent, excipient, etc., for treating or preventing allergic rhinitis, particularly nasal congestion in a mammal. The administration route may be oral or parenteral. The dose varies with the subject to be administered, administration route, symptoms, etc. For example, for oral administration to an adult patient, a unit dose of normally about 0.1 mg/kg to 20 mg/kg body weight, preferably 0.1 mg/kg to 10 mg/kg body weight is advantageously administered about once or twice a day.

allergic rhinitis = test: Experiment 2: effects of perfusion in nasal cavities on allergic rhinitis in guinea pigs (pigment leakage); assay type: in vivo; details: 5 mg/kg perfused in nasal cavity; increase Period-3 minus Period-1; 16 animals; 5% G.A. 13.83 ± 2.61
Method: Effects of perfusion in nasal cavities on allergic rhinitis in guinea pigs
Aerosol of 1% ovalbumin (OA) solution in physiological saline was prepared using an ultrasonic nebulizer (TUR-3200, Nippon Kohden, Tokyo, Japan), and administered to Hartley male guinea pigs weighing 300 to 350 g (Seiwa Jikken Dohbutsu, Fukuoka, Japan) by inhalation for 10 minutes in a polyacrylamide box (20×28×20 cm) once a week (twice in all). Thus the guinea pigs were sensitized. One week after the sensitization, the guinea pigs were anesthetized with pentobarbital sodium (30 mg/kg, i.p.) and fixed on their backs on a thermal pad (Deltaphase isothermal pad, Braintree Scientific, Inc.). The cervical part was opened along the median line, the trachea was opened, a trachea cannula was inserted into the pulmonary side, and the esophagus was ligated. On the other hand, a polyethylene tube (5.5 cm in length, 2.3 mm in outer diameter, Hibiki) connected to an infusion pump was inserted at the nasal side into the choana. […] The resulting perfusion solution was centrifuged at 15,000× g for 1.5 minutes, and the amount of the pigment in the supernatant was determined by absorbance at 610 nm. The activity of the drug was evaluated using as an indication the increased amount of the leaked pigment at Period-3 (i.e., (the amount of the pigment at Period-3)--(the amount of the pigment at Period-1)).

[3] = target: T1, human platelet-derived TXA2 receptor (Homo sapiens, UniProt P21731); test: binding of U-46619 to human platelet-derived TXA2 receptor expressing cells (TCHO-25), receptor assay
T1 construct: expressed in transfected cells
T1 sequence (P21731 1-343): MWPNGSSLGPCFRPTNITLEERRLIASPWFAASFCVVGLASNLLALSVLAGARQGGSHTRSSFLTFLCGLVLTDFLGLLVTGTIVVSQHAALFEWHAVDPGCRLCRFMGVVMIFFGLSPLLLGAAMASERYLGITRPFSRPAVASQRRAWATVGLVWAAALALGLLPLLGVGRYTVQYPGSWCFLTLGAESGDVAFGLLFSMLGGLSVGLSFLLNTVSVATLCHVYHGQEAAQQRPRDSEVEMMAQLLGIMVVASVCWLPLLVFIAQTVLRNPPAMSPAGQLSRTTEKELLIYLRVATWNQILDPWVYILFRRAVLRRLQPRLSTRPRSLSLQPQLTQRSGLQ
From the text: Effects on the binding of U-46619 (11-9-epoxymethane-PGH2, a substance having thromboxane A2 -like activity) to human platelet-derived TXA2 receptor expressing cells
A vector containing cDNA encoding TXA2 receptor (TXA2 .cndot.R) and a vector containing cDNA encoding dihydrofolate reductase were mixed in a ratio of 10:1, and are transferred simultaneously to Chinese hamster ovary (CHO) cells by the calcium phosphate method. Two days later, these cells were inoculated into a medium containing 0.3 mM proline, 10% bovine fetus serum and 0.1 μM methotrexate in a concentration of 2000 cells/well and incubated.

[4] = test system: allergic experimental rhinitis; test: Experiment 1: inhibitory effects on allergic experimental rhinitis in guinea pigs (pigment leakage after antigen perfusion); assay type: in vivo; details: 30 mg/kg, oral, 1 hour before antigen
Method: Inhibitory effects on allergic experimental rhinitis in guinea pigs
Hartley male guinea pigs weighing 350 to 450 g were used. Aerosol of 1% ovalbumin (OA) in physiological saline was prepared using an ultrasonic nebulizer and administered to the guinea pigs by inhalation for 10 minutes. Thus the guinea pigs were sensitized. One week later, the antigen was administered again by inhalation, and the guinea pigs were used for this experiment after one week. The following experiment procedures were carried out by reference to the method of Kojima et al. (Allergy, Vol. 35, p. 180-187 (1986)).
The sensitized guinea pigs were anesthetized by administering pentobarbital (30 mg/kg) intraperitoneally. […] The collected sample was centrifuged at 3000 rpm for 10 minutes, and the absorbance of the supernatant at 620 nm was measured with a spectrophotometer to calculate the pigment concentration.
The drug was suspended in 5% gum arabic (G.A.) solution and was orally administered 1 hour before the antigen induction. The inhibitory ratio (%) was calculated as a ratio of the amount of the leaked pigment to the maximum amount of the leaked pigment in the control group 10 minutes after the antigen induction. […]

With `CC1=C(C)C(=O)C(C(CCCCCC(=O)O)c2ccccc2)=C(C)C1=O` (racemic) [Compound 1, (±)-7-(3,5,6-trimethyl-1,4-benzoquinon-2-yl)-7-phenylheptanoic acid] the “Increase of intranasal pressure AUC(0-25 min)” value ([1]; 0.3 mg/kg, 7 animals) was 246 ± 44, the “Increase of intranasal pressure AUC(0-25 min)” value ([1]; 3.0 mg/kg, 8 animals) was 201 ± 41 and the “Increase of intranasal pressure AUC(0-25 min)” value ([1]; 30 mg/kg, 7 animals, *P < 0.05) was 143 ± 19. The “Internasal pressure increase AUC(0-30 min)” value ([2]; 0.3 mg/kg, 12 animals) was 208 ± 44, the “Internasal pressure increase AUC(0-30 min)” value ([2]; 3.0 mg/kg, 12 animals) was 241 ± 32 and the “Internasal pressure increase AUC(0-30 min)” value ([2]; 30 mg/kg, 13 animals, *P < 0.05) was 183 ± 36. The mortality (ICR male mice) was “no mice died”, the “Pigment concentration” value (allergic rhinitis) was 8.87 ± 2.47 µg/mL and the “inhibition of the binding of U-46619 to TXA2 receptor (mode)” value ([3]; TCHO-25 cells) was “competitively inhibited”.

For `CN1CCCC(n2nc(Cc3ccc(Cl)cc3)c3ccccc3c2=O)CC1` (stereo not shown) [Azelastine hydrochloride, reference compound], the “Increase of intranasal pressure AUC(0-25 min)” value ([1]; 1.0 mg/kg, 7 animals, marked **) was 157 ± 35, the “Inhibitory ratio (%)” value ([1]; 1.0 mg/kg, AUC(0-25 min), 7 animals) was 44% and the “Internasal pressure increase AUC(0-30 min)” value ([2]; 1.0 mg/kg, 8 animals, **P < 0.01) was 92 ± 14. For the same compound, the “Inhibitory ratio (%)” value ([2]; 1.0 mg/kg, AUC(0-30 min), 8 animals) was 73%.

Work on `CCCCC[C@H](O)/C=C/[C@@H]1[C@@H](C/C=C\CCCC(=O)O)[C@H]2CO[C@@H]1C2` [Compound U-46619, 11-9-epoxymethane-PGH2, reference compound] yielded a Kd ([3]; U-46619 based on TXA2 receptor on TCHO-25 cells, read-out: dissociation constant) of 31 nM.

`COc1ccc(CN(CCN(C)C)c2ccccn2)cc1` [Mepyramine] was tested, and the “Inhibitory ratio (%)” value ([4]; Table 1, 9 animals) was 81% and the “Inhibitory ratio (%)” value ([4]; Table 2, 10 animals, **P < 0.01) was 77%.
